The source of these data is patent US20160159816A1, “SUBSTITUTED THIENOPYRIMIDINES AND PHARMACEUTICAL USE THEREOF” (BAYER PHARMA AKTIENGESELLSCHAFT, priority 2013, published 2016).

T1 sequence (Q9BUB5 1-424 isoform Q9BUB5-2 T344D): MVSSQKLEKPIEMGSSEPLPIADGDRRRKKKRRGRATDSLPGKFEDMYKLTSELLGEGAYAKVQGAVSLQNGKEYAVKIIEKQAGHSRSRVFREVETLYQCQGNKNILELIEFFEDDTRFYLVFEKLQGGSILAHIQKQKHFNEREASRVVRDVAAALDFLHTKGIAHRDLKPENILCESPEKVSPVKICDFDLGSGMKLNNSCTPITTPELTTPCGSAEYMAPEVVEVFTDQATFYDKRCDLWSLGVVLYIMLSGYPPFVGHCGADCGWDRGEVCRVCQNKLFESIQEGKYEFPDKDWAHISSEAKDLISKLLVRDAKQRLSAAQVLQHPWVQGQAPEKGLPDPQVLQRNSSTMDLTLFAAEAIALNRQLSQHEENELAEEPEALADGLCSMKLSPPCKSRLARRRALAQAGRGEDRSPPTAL

The assay concerns the target T1, human full-length MKNK1 (Homo sapiens, UniProt Q9BUB5, T385D).
T1 construct: GST (N); purchased Carna Biosciences 02-145; host or cells: insect cells, baculovirus expression system
Kind of assay: MKNK1 kinase high ATP assay (TR-FRET). It counts as biochemical. To be noted: high ATP (2 mM), after preincubation with MKNK1; compounds of the present invention (Table 1a). How it is done:
MKNK1-inhibitory activity at high ATP of compounds of the present invention after their preincubation with MKNK1 was quantified employing the TR-FRET-based MKNK1 high ATP assay as described in the following paragraphs.
A recombinant fusion protein of Glutathione-S-Transferase (GST, N-terminally) and human full-length MKNK1 (amino acids 1-424 and T344D of accession number BAA 19885.1), expressed in insect cells using baculovirus expression system and purified via glutathione sepharose affinity chromatography, was purchased from Carna Biosciences (product no 02-145) and used as enzyme. As substrate for the kinase reaction the biotinylated peptide biotin-Ahx-IKKRKLTRRKSLKG (C-terminus in amide form) was used, which can be purchased e.g. from the company Biosyntan (Berlin-Buch, Germany).
For the assay 50 nL of a 100 fold concentrated solution of the test compound in DMSO was pipetted into a black low volume 384 well microtiter plate (Greiner Bio-One, Frickenhausen, Germany), 2 μL of a solution of MKNK1 in aqueous assay buffer [50 mM HEPES pH 7.5, 5 mM MgCl2, 1.0 mM dithiothreitol, 0.005% (v/v) Nonidet-P40 (Sigma)] was added and the mixture was incubated for 15 min at 22° C. to allow pre-binding of the test compounds to the enzyme before the start of the kinase reaction. Then the kinase reaction was started by the addition of 3 μL of a solution of adenosine-tri-phosphate (ATP, 3.3 mM=>final conc. in the 5 μL assay volume is 2 mM) and substrate (0.1 μM=>final conc. in the 5 μL assay volume is 0.06 μM) in assay buffer and the resulting mixture was incubated for a reaction time of 30 min at 22° C. The concentration of MKNK1 was adjusted depending of the activity of the enzyme lot and was chosen appropriate to have the assay in the linear range, typical concentrations were in the range of 0.003 μg/mL. The reaction was stopped by the addition of 5 μL of a solution of TR-FRET detection reagents (5 nM streptavidine-XL665 [Cisbio Bioassays, Codolet, France] and 1 nM anti-ribosomal protein […] (pSer236)-antibody from Invitrogen [#44921G] and 1 nM LANCE EU-W1024 labeled ProteinG [Perkin-Elmer, product no. AD0071]) in an aqueous EDTA-solution (100 mM EDTA, 0.1% (w/v) bovine serum albumin in 50 mM HEPES pH 7.5).
The resulting mixture was incubated for 1 h at 22° C. to allow the formation of complex between the phosphorylated biotinylated peptide and the detection reagents. Subsequently the amount of phosphorylated substrate was evaluated by measurement of the resonance energy transfer from the Eu-chelate to the streptavidine-XL. Therefore, the fluorescence emissions at 620 nm and 665 nm after excitation at 350 nm were measured in a TR-FRET reader, e.g. a Rubystar (BMG Labtechnologies, Offenburg, Germany) or a Viewlux (Perkin-Elmer). The ratio of the emissions at 665 nm and at […] was taken as the measure for the amount of phosphorylated substrate. The data were normalised (enzyme reaction without inhibitor=0% inhibition, all other assay components but no enzyme=100% inhibition). […] Table 1a lists MKNK1 high ATP IC50 values of some compounds of the present invention.
Compound `N[C@@H](CCO)C(=O)NCC1CCc2c(sc3ncnc(Nc4ccc5[nH]ncc5c4)c23)C1` (mixture of isomers) [Example 16, N-{[(7RS)-4-(1H-Indazol-5-ylamino)-5,6,7,8-tetrahydro[1]benzothieno[2,3-d]pyrimidin-7-yl]methyl}-L-homoserinamide] came in with an IC50 of 20.8 nM.

`[N-]=[N+]=NCC1CCc2c(sc3ncnc(Nc4ccc5[nH]ncc5c4)c23)C1` (racemic) [Example 6, (RS)-7-(Azidomethyl)-N-(1H-indazol-5-yl)-5,6,7,8-tetrahydro[1]benzothieno[2,3-d]pyrimidin-4-amine] displayed an IC50 of 124 nM. Against the preceding compound, the IC50 is about 6-fold higher.

For the compound `COCC1(OC)CCc2c(sc3ncnc(Nc4ccc5[nH]ncc5c4)c23)C1` (single isomer, unassigned) [Example 38, (7R) or (7S) N-(1H-Indazol-5-yl)-7-methoxy-7-(methoxymethyl)-5,6,7,8-tetrahydro[1]benzothieno[2,3-d]pyrimidin-4-amine], the IC50 turned out to be 106 nM.

In turn, `COCC1(OC)CCc2c(sc3ncnc(Nc4cc5cn[nH]c5cc4OC)c23)C1` (single isomer, unassigned) [Example 42, (7R) or (7S) 7-Methoxy-N-(6-methoxy-1H-indazol-5-yl)-7-(methoxymethyl)-5,6,7,8-tetrahydro[1]benzothieno[2,3-d]pyrimidin-4-amine] yielded an IC50 of 10.1 nM.

Compound `COc1cc2[nH]ncc2cc1Nc1ncnc2sc3c(c12)CCC(CNC(=O)NC(C)C)C3` (racemic) [Example 20, (RS)-1-({4-[(6-Methoxy-1H-indazol-5-yl)amino]-5,6,7,8-tetrahydro[1]benzothieno[2,3-d]pyrimidin-7-yl}methyl)-3-propan-2-ylurea] yielded an IC50 of 3.1 nM.

For the compound `COc1cc2[nH]ncc2cc1Nc1ncnc2sc3c(c12)CCC(CNC(=O)[C@@H](O)Cc1ccccc1)C3` (mixture of isomers) [Example 23, (2R)-2-Hydroxy-N-({(7RS)-4-[(6-methoxy-1H-indazol-5-yl)amino]-5,6,7,8-tetrahydro[1]benzothieno[2,3-d]pyrimidin-7-yl}methyl)-3-phenylpropanamide], the IC50 came to 5 nM. Compared with the last compound, the IC50 is about 1.6-fold higher.

`COCC1(OC)CCc2c(sc3ncnc(Nc4cc5cn[nH]c5cc4Cl)c23)C1` (racemic) [Example 31, (RS)—N-(6-Chloro-1H-indazol-5-yl)-7-methoxy-7-(methoxymethyl)-5,6,7,8-tetrahydro[1]benzothieno[2,3-d]pyrimidin-4-amine]: 149 nM corresponded to half-maximal inhibition (IC50).

`COc1cc2[nH]ncc2cc1Nc1ncnc2sc3c(c12)CC[C@](C)(C(=O)N(C)OC)C3` [Example 58, (7S) N-Methoxy-4-[(6-methoxy-1H-indazol-5-yl)amino]-N,7-dimethyl-5,6,7,8-tetrahydro[1]benzothieno[2,3-d]pyrimidine-7-carboxamide]: it took 2.5 nM to reach half-maximal inhibition (IC50).

`COCC1(OC)CCc2c(sc3ncnc(Nc4ccc5[nH]ncc5c4)c23)C1` (racemic) [Example 37, (7RS)—N-(1H-Indazol-5-yl)-7-methoxy-7-(methoxymethyl)-5,6,7,8-tetrahydro[1]benzothieno[2,3-d]pyrimidin-4-amine] had an IC50 of 47.8 nM.

Regarding `CC[C@]1(C(=O)N2CCOC[C@H]2C)CCc2c(sc3ncnc(Nc4cc5cn[nH]c5cc4OC)c23)C1` [Example 75, {(7S)-7-Ethyl-4-[(6-methoxy-1H-indazol-5-yl)amino]-5,6,7,8-tetrahydro[1]benzothieno[2,3-d]pyrimidin-7-yl}[(3R)-3-methylmorpholin-4-yl]methanone], the IC50 is 20.6 nM.

As to `O=C(NCC1CCc2c(sc3ncnc(Nc4ccc5[nH]ncc5c4)c23)C1)[C@@H](O)Cc1ccccc1` (mixture of isomers) [Example 14, (2R)-2-Hydroxy-N-{[(7RS)-4-(1H-indazol-5-ylamino)-5,6,7,8-tetrahydro[1]benzothieno[2,3-d]pyrimidin-7-yl]methyl}-3-phenylpropanamide], the IC50 turned out to be 17 nM.

`CC[C@@]1(C(=O)N2C[C@@H](C)O[C@@H](C)C2)CCc2c(sc3ncnc(Nc4cc5cn[nH]c5cc4OC)c23)C1` [Example 70, (7R) [(2R,6S)-2,6-Dimethylmorpholin-4-yl]{7-ethyl-4-[(6-methoxy-1H-indazol-5-yl)amino]-5,6,7,8-tetrahydro[1]benzothieno[2,3-d]pyrimidin-7-yl}methanone] gave an IC50 of 50.9 nM.

As to `COc1cc2[nH]ncc2cc1Nc1ncnc2sc3c(c12)CCC1(C3)OCCO1` [Example 24, N-(6-Methoxy-1H-indazol-5-yl)-5,8-dihydro-6H-spiro[1-benzothieno[2,3-d]pyrimidine-7,2′-[1,3]dioxolan]-4-amine], the IC50 was determined as 4.8 nM.

Compound `COc1cc2[nH]ncc2cc1Nc1ncnc2sc3c(c12)CC[C@@](C)(C(=O)N1CCOC[C@H]1C)C3` [Example 55, (7R) {4-[(6-Methoxy-1H-indazol-5-yl)amino]-7-methyl-5,6,7,8-tetrahydro[1]benzothieno[2,3-d]pyrimidin-7-yl}[(3R)-3-methylmorpholin-4-yl]methanone] registered an IC50 of 33.3 nM. Against the preceding compound, the IC50 is about 6.9-fold higher.

Turning to `COCCN(C)C(=O)[C@]1(C)CCc2c(sc3ncnc(Nc4cc5cn[nH]c5cc4OC)c23)C1` [Example 57, (7R) N-(2-Methoxyethyl)-4-[(6-methoxy-1H-indazol-5-yl)amino]-N,7-dimethyl-5,6,7,8-tetrahydro[1]benzothieno[2,3-d]pyrimidine-7-carboxamide], it took 21.4 nM to reach half-maximal inhibition (IC50).

`CC[C@]1(C(=O)N(C)CCOC)CCc2c(sc3ncnc(Nc4cc5cn[nH]c5cc4OC)c23)C1` [Example 65, (7S) 7-Ethyl-N-(2-methoxyethyl)-4-[(6-methoxy-1H-indazol-5-yl)amino]-N-methyl-5,6,7,8-tetrahydro[1]benzothieno[2,3-d]pyrimidine-7-carboxamide] yielded an IC50 of 3 nM.

`COCC1(OC)CCc2c(sc3ncnc(Nc4cc5cn[nH]c5cc4C)c23)C1` (racemic) [Example 29, (RS)-7-methoxy-7-(methoxymethyl)-N-(6-methyl-1H-indazol-5-yl)-5,6,7,8-tetrahydro[1]benzothieno[2,3-d]pyrimidin-4-amine]: the IC50 stood at 984 nM.

For the compound `COc1cc2[nH]ncc2cc1Nc1ncnc2sc3c(c12)CCC(CNC(=O)C(C)C)C3` (racemic) [Example 21, (RS)—N-({4-[(6-Methoxy-1H-indazol-5-yl)amino]-5,6,7,8-tetrahydro[1]benzothieno[2,3-d]pyrimidin-7-yl}methyl)-2-methylpropanamide], 2.1 nM corresponded to half-maximal inhibition (IC50).

Regarding `COCC1(OC)CCc2c(sc3ncnc(Nc4cc5cn[nH]c5cc4F)c23)C1` (racemic) [Example 30, (RS)—N-(6-Fluoro-1H-indazol-5-yl)-7-methoxy-7-(methoxymethyl)-5,6,7,8-tetrahydro[1]benzothieno[2,3-d]pyrimidin-4-amine], the half-inhibitory concentration (IC50) stood at 89.4 nM.

For the compound `c1nc(Nc2ccc3[nH]ncc3c2)c2c3c(sc2n1)CCCC3` [Example 3, N-(1H-Indazol-5-yl)-5,6,7,8-tetrahydro[1]benzothieno[2,3-d]pyrimidin-4-amine], the midpoint of inhibition, the IC50, lay at 18.5 nM. This IC50 lies about 4.8-fold lower than the previous one.

`COc1cc2[nH]ncc2cc1Nc1ncnc2sc3c(c12)CC[C@](C)(C(=O)N1CCOC[C@H]1C)C3` [Example 54, (7S) {4-[(6-Methoxy-1H-indazol-5-yl)amino]-7-methyl-5,6,7,8-tetrahydro[1]benzothieno[2,3-d]pyrimidin-7-yl}[(3R)-3-methylmorpholin-4-yl]methanone] displayed an IC50 of 4.3 nM.
